Source: patent US12624040B2, “Compositions of substituted pyrazolopyrimidines and uses thereof” (KSQ Therapeutics, Inc., priority 2020, dated 2026)

Columns and labels:
[1] = Bioavailability
[2] = Aqueous solubility / BCS classification; format: physicochemical; details: for BCS class: low solubility/high permeability; for Solubility in water: physiological pHs (from pH 1.5-8.0)
Text: Studies of these compounds indicate that these compounds are BCS class II compounds (low solubility/high permeability). […] Poor bioavailability is also often accompanied by highly variable patient blood levels and unpredictable dose/therapeutic effects due to erratic absorption of the drug by the patient. Accordingly, a need exists for compositions and methods to increase the solubility of these compounds.

Row | Structure (SMILES) | Bioavailability [1] | BCS class [2] | Solubility in water [2]
1 | COc1ncnc(C2CC2)c1-c1ncc2cnn(Cc3ccc(-c4nc(C(F)(F)F)cn4C(C)C)cc3)c2n1 [Formula II, 6-(4-cyclopropyl-6-methoxypyrimidin-5-yl)-1-(4-(1-isopropyl-4-(trifluoromethyl)-1H-imidazol-2-yl)benzyl)-1H-pyrazolo[3,4-d]pyrimidine] | low bioavailability | BCS class II | poorly soluble
2 | COc1ncnc(C2CC2)c1-c1ncc2cnn(Cc3ccc(-n4nc(C(F)(F)F)cc4C)cc3)c2n1 [Formula III, 6-(4-cyclopropyl-6-methoxypyrimidin-5-yl)-1-(4-(5-methyl-3-(trifluoromethyl)-1H-pyrazol-1-yl)benzyl)-1H-pyrazolo[3,4-d] pyrimidine] | low bioavailability | BCS class II | poorly soluble
